Test results as given in patent US12433952B2, “Antibody-drug conjugates targeting folate receptor alpha and methods of use” (ZYMEWORKS BC INC., priority 2022, dated 2025).
Like-named read-outs stand apart in the source and are kept apart here.

Legend:
Experiment in all cases: In vitro cytotoxicity of camptothecin analogues (CellTiter-Glo)
Assay type in all cases: cell-based
[1] = tested on: Calu-3 (lung cancer); settings: Homo sapiens, Calu-3, 96 h, read-out: pIC50 Calu-3 (converted)
Experimental: (§1) Cytotoxicity of the camptothecin analogues was assessed in vitro as follows.
(§2) In vitro potency was assessed on multiple cancer cell lines: SK-BR-3 (breast cancer), SKOV-3 (ovarian cancer), Calu-3 (lung cancer), ZR-75-1 (breast cancer) and MDA-MB-468 (breast cancer). Serial dilutions of camptothecin analogues were prepared in RPMI 1640+10% FBS, and 20 μL of each dilution was added to 384-well plates. Cells cultured in log-phase growth were detached by brief incubation in 0.05% Trypsin and resuspended in respective culturing media at 20,000 cells/mL (with the exception of ZR-75 cells, which were resuspended at 10,000 cells/mL). 50 μL of cell suspension was then added to the plates containing test articles. Cells were incubated with test articles for 4 d at 37° C. (with the exception of ZR-75 cells, which were incubated for 5 d). Growth inhibition was assessed by CellTiter-Glo® (Promega Corporation, Madison, WI) and luminescence was measured on a plate reader. IC50 values were determined by GraphPad Prism (GraphPad Software, San Diego CA).

[2] = tested on: MDA-MB-468 (breast cancer); settings: Homo sapiens, MDA-MB-468, 96 h, read-out: pIC50 MDA-MB-468 (converted)
Experimental: as §1, §2

[3] = tested on: SK-BR-3 (breast cancer); settings: Homo sapiens, SK-BR-3, 96 h, read-out: pIC50 SKBR-3 (converted)
Experimental: as §1, §2

[4] = tested on: SKOV-3 (ovarian cancer); settings: Homo sapiens, SK-OV-3, 96 h, read-out: pIC50 SKOV-3 (converted)
Experimental: as §1, §2

[5] = tested on: ZR-75-1 (breast cancer); settings: Homo sapiens, ZR-75-1, 120 h, read-out: pIC50 ZR-75 (converted)
Experimental: as §1, §2

| SMILES | IC50 ([1]; 4 d incubation) [nM] | IC50 ([2]; 4 d incubation) [nM] | IC50 ([3]; 4 d incubation) [nM] | IC50 ([4]; 4 d incubation) [nM] | IC50 ([5]; 5 d incubation) [nM] | IC50 [1] [nM] | IC50 [2] [nM] | IC50 [3] [nM] | IC50 [4] [nM] | IC50 [5] [nM] |
| --- | --- | --- | --- | --- | --- | --- | --- | --- | --- | --- |
| CC[C@@]1(O)C(=O)OCc2c1cc1n(c2=O)Cc2c-1nc1cc(F)c(C)cc1c2CN1CCN(S(=O)(=O)c2ccc(N)cc2)CC1 [Compound 104, (S)-11-((4-((4-aminophenyl)sulfonyl)piperazin-1-yl)methyl)-4-ethyl-8-fluoro-4-hydroxy-9-methyl-1,12-dihydro-14H-pyrano[3′,4′:6,7]indolizino[1,2-b]quinoline-3,14(4H)-dione] | 5.25 | 2.63 | 2.69 | 7.76 | 2.57 |  |  |  |  |  |
| CC[C@@]1(O)C(=O)OCc2c1cc1n(c2=O)Cc2c-1nc1cc(F)c(N)cc1c2CNC(=O)OC [Compound 143, Methyl (S)-((9-amino-4-ethyl-8-fluoro-4-hydroxy-3,14-dioxo-3,4,12,14-tetrahydro-1H-pyrano[3′,4′:6,7]indolizino[1,2-b]quinolin-11-yl)methyl)carbamate] | 0.708 | 0.708 | 0.389 | 2.82 | 0.851 |  |  |  |  |  |
| CC[C@@]1(O)C(=O)OCc2c1cc1n(c2=O)Cc2c-1nc1cc(F)c(C)cc1c2CN1CCCCC1 [Compound 110, (S)-4-ethyl-8-fluoro-4-hydroxy-9-methyl-11-(piperidin-1-ylmethyl)-1,12-dihydro-14H-pyrano[3′,4′:6,7]indolizino[1,2-b]quinoline-3,14(4H)-dione] | 0.813 | 1.55 | 1.32 | 0.933 | 0.851 |  |  |  |  |  |
| CC[C@@]1(O)C(=O)OCc2c1cc1n(c2=O)Cc2c-1nc1cc(F)c(OC)cc1c2CN1CCN(S(=O)(=O)c2ccccc2)CC1 [Compound 103, (S)-4-ethyl-8-fluoro-4-hydroxy-9-methoxy-11-((4-(phenylsulfonyl)piperazin-1-yl)methyl)-1,12-dihydro-14H-pyrano[3′,4′:6,7]indolizino[1,2-b]quinoline-3,14(4H)-dione] | 2.34 | 4.68 | 1.7 | 4.37 | 2.4 |  |  |  |  |  |
| CC[C@@]1(O)C(=O)OCc2c1cc1n(c2=O)Cc2c-1nc1cc(F)c(C)cc1c2CNS(=O)(=O)CCO [Compound 129, (S)—N-((4-ethyl-8-fluoro-4-hydroxy-9-methyl-3,14-dioxo-3,4,12,14-tetrahydro-1H-pyrano[3′,4′:6,7]indolizino[1,2-b]quinolin-11-yl)methyl)-2-hydroxyethane-1-sulfonamide] | 5.25 | 3.98 | 3.09 | 20.4 | 2.63 |  |  |  |  |  |
| CC[C@@]1(O)C(=O)OCc2c1cc1n(c2=O)Cc2c-1nc1cc(F)c(OC)cc1c2CN1CCN(S(=O)(=O)c2ccc(N)cc2)CC1 [Compound 105, (S)-11-((4-((4-aminophenyl)sulfonyl)piperazin-1-yl)methyl)-4-ethyl-8-fluoro-4-hydroxy-9-methoxy-1,12-dihydro-14H-pyrano[3′,4′:6,7]indolizino[1,2-b]quinoline-3,14(4H)-dione] | 4.47 | 2.75 | 3.63 | 10.7 | 3.09 |  |  |  |  |  |
| CC[C@@]1(O)C(=O)OCc2c1cc1n(c2=O)Cc2c-1nc1cc(F)c(N)cc1c2CN1CCN(C)CC1 [Compound 149, (S)-9-amino-4-ethyl-8-fluoro-4-hydroxy-11-((4-methylpiperazin-1-yl)methyl)-1,12-dihydro-14H-pyrano[3′,4′:6,7]indolizino[1,2-b]quinoline-3,14(4H)-dione] | 6.31 | 6.31 | 3.16 | 10 | 1.82 |  |  |  |  |  |
| CC[C@@]1(O)C(=O)OCc2c1cc1n(c2=O)Cc2c-1nc1cc(F)c(OC)cc1c2CNS(=O)(=O)c1ccccc1 [Compound 126, (S)—N-((4-ethyl-8-fluoro-4-hydroxy-9-methoxy-3,14-dioxo-3,4,12,14-tetrahydro-1H-pyrano[3′,4′:6,7]indolizino[1,2-b]quinolin-11-yl)methyl)benzenesulfonamide] | 2.95 | 1.95 | 1.1 | 6.31 | 0.724 |  |  |  |  |  |
| CC[C@@]1(O)C(=O)OCc2c1cc1n(c2=O)Cc2c-1nc1cc(F)c(OC)cc1c2CNS(C)(=O)=O [Compound 123, (S)—N-((4-ethyl-8-fluoro-4-hydroxy-9-methoxy-3,14-dioxo-3,4,12,14-tetrahydro-1H-pyrano[3′,4′:6,7]indolizino[1,2-b]quinolin-11-yl)methyl)methanesulfonamide] | 3.72 | 2 | 1.91 | 19.5 | 2.45 |  |  |  |  |  |
| CC[C@@]1(O)C(=O)OCc2c1cc1n(c2=O)Cc2cc3cc(N)c(F)cc3nc2-1 [Compound 140, (S)-9-amino-4-ethyl-8-fluoro-4-hydroxy-1,12-dihydro-14H-pyrano[3′,4′:6,7]indolizino [1,2-b]quinoline-3,14(4H)-dione] | 0.309 | 0.708 | 0.316 | 0.457 | 0.331 |  |  |  |  |  |
| CC[C@@]1(O)C(=O)OCc2c1cc1n(c2=O)Cc2c-1nc1cc(F)c(C)cc1c2CNC(=O)NC [Compound 132, (S)-1-((4-ethyl-8-fluoro-4-hydroxy-9-methyl-3,14-dioxo-3,4,12,14-tetrahydro-1H-pyrano[3′,4′:6,7]indolizino[1,2-b]quinolin-11-yl)methyl)-3-methylurea] | 51.3 | 26.9 | 22.9 | 105 | 15.5 |  |  |  |  |  |
| CC[C@@]1(O)C(=O)OCc2c1cc1n(c2=O)Cc2c-1nc1cc(F)c(N)cc1c2CNC(=O)NC [Compound 144, (S)-1-((9-amino-4-ethyl-8-fluoro-4-hydroxy-3,14-dioxo-3,4,12,14-tetrahydro-1H-pyrano[3′,4′:6,7]indolizino[1,2-b]quinolin-11-yl)methyl)-3-methylurea] | 22.4 | 22.4 | 0.794 | 69.2 | 13.2 |  |  |  |  |  |
| CC[C@@]1(O)C(=O)OCc2c1cc1n(c2=O)Cc2c-1nc1cc(F)c(C)cc1c2CN1CCNCC1 [Compound 112, (S)-4-ethyl-8-fluoro-4-hydroxy-9-methyl-11-(piperazin-1-ylmethyl)-1,12-dihydro-14H-pyrano[3′,4′:6,7]indolizino[1,2-b]quinoline-3,14(4H)-dione] | 17.4 | 13.5 | 6.61 | 20 | 12 |  |  |  |  |  |
| CC[C@@]1(O)C(=O)OCc2c1cc1n(c2=O)Cc2c-1nc1cc(F)c(C)cc1c2CN1CCO[C@@H](CO)C1 [Compound 113, (S)-4-ethyl-8-fluoro-4-hydroxy-11-(((R)-2-(hydroxymethyl)morpholino)methyl)-9-methyl-1,12-dihydro-14H-pyrano[3′,4′:6,7]indolizino[1,2-b]quinoline-3,14(4H)-dione] |  |  |  |  |  | 3.02 | 3.39 | 1.95 | 4.27 | 2.19 |
| CC[C@@]1(O)C(=O)OCc2c1cc1n(c2=O)Cc2c-1nc1cc(F)c(C)cc1c2CNS(C)(=O)=O [Compound 122, (S)—N-((4-ethyl-8-fluoro-4-hydroxy-9-methyl-3,14-dioxo-3,4,12,14-tetrahydro-1H-pyrano[3′,4′:6,7]indolizino[1,2-b]quinolin-11-yl)methyl)methanesulfonamide] |  |  |  |  |  | 3.72 | 1.1 | 1.12 | 9.12 | 1.29 |
| CC[C@@]1(O)C(=O)OCc2c1cc1n(c2=O)Cc2c-1nc1cc(F)c(C)cc1c2CN1CCN(C)CC1 [Compound 106, (S)-4-ethyl-8-fluoro-4-hydroxy-9-methyl-11-((4-methylpiperazin-1-yl)methyl)-1,12-dihydro-14H-pyrano[3′,4′:6,7]indolizino[1,2-b]quinoline-3,14(4H)-dione] | 4.57 | 9.33 | 3.39 | 7.41 | 3.8 |  |  |  |  |  |
| CC[C@@]1(O)C(=O)OCc2c1cc1n(c2=O)Cc2c-1nc1cc(F)c(C)cc1c2CNC(=O)OC [Compound 138, Methyl-(S)-((4-ethyl-8-fluoro-4-hydroxy-9-methyl-3,14-dioxo-3,4,12,14-tetrahydro-1H-pyrano[3′,4′:6,7]indolizino[1,2-b]quinolin-11-yl)methyl)carbamate] | 0.389 | 0.871 | 0.479 | 0.617 | 0.195 |  |  |  |  |  |
| CC[C@@]1(O)C(=O)OCc2c1cc1n(c2=O)Cc2c-1nc1cc(F)c(N)cc1c2CN [Compound 145, (S)-9-amino-11-(aminomethyl)-4-ethyl-8-fluoro-4-hydroxy-1,12-dihydro-14H-pyrano[3′,4′:6,7]indolizino[1,2-b]quinoline-3,14(4H)-dione] | 0.269 | 0.269 | 0.355 | 0.933 | 0.38 |  |  |  |  |  |
